Each compound was assayed against T1, human CYP2C19 (Homo sapiens, UniProt P33261) (assay: biochemical). Conditions: CYP2C19 IC50 (half-maximal inhibitory concentration).
T1 sequence (P33261 whole entry): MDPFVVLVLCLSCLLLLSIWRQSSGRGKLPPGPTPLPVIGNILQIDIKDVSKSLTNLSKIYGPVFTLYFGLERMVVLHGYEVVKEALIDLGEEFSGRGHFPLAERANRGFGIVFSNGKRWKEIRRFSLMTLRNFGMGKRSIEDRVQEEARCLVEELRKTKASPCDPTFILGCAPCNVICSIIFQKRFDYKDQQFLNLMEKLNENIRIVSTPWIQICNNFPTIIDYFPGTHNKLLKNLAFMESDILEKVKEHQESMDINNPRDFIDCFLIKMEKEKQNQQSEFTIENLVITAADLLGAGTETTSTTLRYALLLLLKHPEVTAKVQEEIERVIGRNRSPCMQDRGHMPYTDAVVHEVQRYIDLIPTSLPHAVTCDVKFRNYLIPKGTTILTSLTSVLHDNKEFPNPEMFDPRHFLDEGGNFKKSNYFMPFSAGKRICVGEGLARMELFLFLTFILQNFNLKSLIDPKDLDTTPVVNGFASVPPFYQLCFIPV

| SMILES | IC50 [µM] |
| --- | --- |
| CCNP(=S)(OC)O/C(C)=C/C(=O)OC(C)C (centres unmarked) [Propetamphos] | 0.08 |
| CCCC1COC(Cn2cncn2)(c2ccc(Cl)cc2Cl)O1 (centres unmarked) [Propiconazole] | 0.52 |
| CC(C)(C)C(O)(CCc1ccc(Cl)cc1)Cn1cncn1 (centres unmarked) [Tebuconazole] | 0.45 |
| FC(F)C(F)(F)OCC(Cn1cncn1)c1ccc(Cl)cc1Cl (centres unmarked) [Tetraconazole] | 0.02 |
| CCCOC/C(=N\c1ccc(Cl)cc1C(F)(F)F)n1ccnc1 [Triflumizole] | 0.36 |

What follows are compounds tested against T2, human CYP2C9 (Homo sapiens, UniProt P11712) (assay: not given). Conditions: human.
T2 sequence (P11712 whole entry): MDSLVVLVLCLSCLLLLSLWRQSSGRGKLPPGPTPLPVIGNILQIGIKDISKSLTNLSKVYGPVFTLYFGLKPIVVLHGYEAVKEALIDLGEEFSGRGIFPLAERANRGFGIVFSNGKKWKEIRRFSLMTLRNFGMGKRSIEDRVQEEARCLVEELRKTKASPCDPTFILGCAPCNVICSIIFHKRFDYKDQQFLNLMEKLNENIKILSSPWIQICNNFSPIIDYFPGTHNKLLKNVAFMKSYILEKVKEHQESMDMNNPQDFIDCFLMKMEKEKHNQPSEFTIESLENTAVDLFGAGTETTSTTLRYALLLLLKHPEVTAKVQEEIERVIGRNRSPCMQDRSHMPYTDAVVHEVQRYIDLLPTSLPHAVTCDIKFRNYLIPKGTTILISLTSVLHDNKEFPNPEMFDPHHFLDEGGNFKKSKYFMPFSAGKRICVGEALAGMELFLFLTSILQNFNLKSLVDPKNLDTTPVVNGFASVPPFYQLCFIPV

| SMILES | CYP2C9 Efficacy (in parenthesis) |
| --- | --- |
| CCNP(=S)(OC)O/C(C)=C/C(=O)OC(C)C (centres unmarked) [Propetamphos] | 0.57 ± 0.11 (-102 ± 4) % |
| CCCC1COC(Cn2cncn2)(c2ccc(Cl)cc2Cl)O1 (centres unmarked) [Propiconazole] | 2.18 ± 0.37 (-104 ± 6) % |
| CC(C)(C)C(O)(CCc1ccc(Cl)cc1)Cn1cncn1 (centres unmarked) [Tebuconazole] | 3.3 ± 0.22 (-104 ± 4) % |
| FC(F)C(F)(F)OCC(Cn1cncn1)c1ccc(Cl)cc1Cl (centres unmarked) [Tetraconazole] | 1.84 ± 0.12 (-114 ± 7) % |
| CCCOC/C(=N\c1ccc(Cl)cc1C(F)(F)F)n1ccnc1 [Triflumizole] | 3.92 ± 0.98 (-103 ± 3) % |

These compounds were tested against T2, human CYP2C9 (assay: biochemical). Conditions: not given.

| SMILES | AC50 [µM] | IC50 [µM] |
| --- | --- | --- |
| CN(CC1(C)CCCO1)S(=O)(=O)c1ccc(Cl)c(S(N)(=O)=O)c1 (centres unmarked) [Mefruside] | 13.3 ± 8.76 |  |
| CCNP(=S)(OC)O/C(C)=C/C(=O)OC(C)C (centres unmarked) [Propetamphos] |  | 0.57 |
| CCc1c(C(=O)NN2CCCCC2)nn(-c2ccc(Cl)cc2Cl)c1-c1ccc(Br)cc1 [Surinabant] | 8.32 ± 1.06 |  |

Same assay, conditions: CYP2C9 IC50 (half-maximal inhibitory concentration)

| SMILES | IC50 [µM] |
| --- | --- |
| CCCC1COC(Cn2cncn2)(c2ccc(Cl)cc2Cl)O1 (centres unmarked) [Propiconazole] | 2.18 |
| CC(C)(C)C(O)(CCc1ccc(Cl)cc1)Cn1cncn1 (centres unmarked) [Tebuconazole] | 3.3 |
| FC(F)C(F)(F)OCC(Cn1cncn1)c1ccc(Cl)cc1Cl (centres unmarked) [Tetraconazole] | 1.84 |
| CCCOC/C(=N\c1ccc(Cl)cc1C(F)(F)F)n1ccnc1 [Triflumizole] | 3.92 |

Each compound was assayed against T3, human CYP1A2 (Homo sapiens, UniProt P05177) (assay: not given). Conditions: not given.
T3 sequence (P05177 1-516): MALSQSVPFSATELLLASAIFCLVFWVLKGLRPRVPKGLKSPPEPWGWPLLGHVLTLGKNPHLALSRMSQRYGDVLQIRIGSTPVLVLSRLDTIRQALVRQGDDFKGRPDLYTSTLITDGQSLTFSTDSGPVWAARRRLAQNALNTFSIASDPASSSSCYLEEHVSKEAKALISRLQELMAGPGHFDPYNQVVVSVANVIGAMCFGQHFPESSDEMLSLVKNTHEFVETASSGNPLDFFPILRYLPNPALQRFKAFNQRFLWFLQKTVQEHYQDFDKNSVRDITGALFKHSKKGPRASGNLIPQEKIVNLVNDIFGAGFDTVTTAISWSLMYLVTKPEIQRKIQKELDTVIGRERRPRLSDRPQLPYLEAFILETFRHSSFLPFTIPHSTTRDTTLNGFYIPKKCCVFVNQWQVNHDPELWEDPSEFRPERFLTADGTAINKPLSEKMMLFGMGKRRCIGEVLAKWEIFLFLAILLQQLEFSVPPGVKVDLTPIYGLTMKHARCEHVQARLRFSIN

| SMILES | CYP1A2 AC50 (half-maximal activity concentration) |
| --- | --- |
| CN(CC1(C)CCCO1)S(=O)(=O)c1ccc(Cl)c(S(N)(=O)=O)c1 (centres unmarked) [Mefruside] | Inactive |
| CCc1c(C(=O)NN2CCCCC2)nn(-c2ccc(Cl)cc2Cl)c1-c1ccc(Br)cc1 [Surinabant] | Inactive |

Same assay, conditions: human

| SMILES | CYP1A2 Efficacy (in parenthesis) |
| --- | --- |
| CCNP(=S)(OC)O/C(C)=C/C(=O)OC(C)C (centres unmarked) [Propetamphos] | 2.25 ± 0.26 (-99 ± 4) % |
| CCCC1COC(Cn2cncn2)(c2ccc(Cl)cc2Cl)O1 (centres unmarked) [Propiconazole] | 24.72 ± 6.17 (-104 ± 9) % |
| CC(C)(C)C(O)(CCc1ccc(Cl)cc1)Cn1cncn1 (centres unmarked) [Tebuconazole] | 31.85 ± 3.66 (-77 ± 8) % |
| FC(F)C(F)(F)OCC(Cn1cncn1)c1ccc(Cl)cc1Cl (centres unmarked) [Tetraconazole] | 6.09 ± 0.84 (-101 ± 7) % |
| CCCOC/C(=N\c1ccc(Cl)cc1C(F)(F)F)n1ccnc1 [Triflumizole] | 9.3 ± 0.63 (-102 ± 6) % |

The compounds below were run against T4, CYP3A4 (Homo sapiens, UniProt P08684) (assay: not given). Conditions: not given.
T4 sequence (P08684 whole entry): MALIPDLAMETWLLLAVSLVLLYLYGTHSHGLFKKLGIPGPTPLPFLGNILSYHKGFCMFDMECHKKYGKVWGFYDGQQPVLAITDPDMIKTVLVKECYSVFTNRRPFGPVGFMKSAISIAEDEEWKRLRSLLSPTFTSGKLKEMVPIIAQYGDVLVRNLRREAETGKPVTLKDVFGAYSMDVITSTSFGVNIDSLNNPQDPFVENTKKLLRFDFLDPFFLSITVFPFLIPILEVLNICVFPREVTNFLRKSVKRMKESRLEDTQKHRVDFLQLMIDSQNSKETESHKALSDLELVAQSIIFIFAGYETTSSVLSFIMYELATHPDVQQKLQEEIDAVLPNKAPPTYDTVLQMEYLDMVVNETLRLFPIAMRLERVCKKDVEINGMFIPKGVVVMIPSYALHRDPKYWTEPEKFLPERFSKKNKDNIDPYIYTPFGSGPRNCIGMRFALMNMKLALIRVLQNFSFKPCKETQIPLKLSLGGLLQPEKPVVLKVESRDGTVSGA

| SMILES | CYP3A4 Efficacy (in parenthesis) |
| --- | --- |
| CCNP(=S)(OC)O/C(C)=C/C(=O)OC(C)C (centres unmarked) [Propetamphos] | 1.05 ± 0.36 (-88 ± 2) % |
| CCCC1COC(Cn2cncn2)(c2ccc(Cl)cc2Cl)O1 (centres unmarked) [Propiconazole] | 0.06 ± 0.02 (-71 ± 3) % |
| CC(C)(C)C(O)(CCc1ccc(Cl)cc1)Cn1cncn1 (centres unmarked) [Tebuconazole] | 0.21 ± 0.04 (-90 ± 1) % |
| FC(F)C(F)(F)OCC(Cn1cncn1)c1ccc(Cl)cc1Cl (centres unmarked) [Tetraconazole] | 0.25 ± 0.06 (-66 ± 2) % |
| CCCOC/C(=N\c1ccc(Cl)cc1C(F)(F)F)n1ccnc1 [Triflumizole] | 0.21 ± 0.07 (-78 ± 2) % |

The compounds below were run against T5, human CYP2D6 (Homo sapiens, UniProt P10635) (assay: not given). Conditions: not given.
T5 sequence (P10635 whole entry): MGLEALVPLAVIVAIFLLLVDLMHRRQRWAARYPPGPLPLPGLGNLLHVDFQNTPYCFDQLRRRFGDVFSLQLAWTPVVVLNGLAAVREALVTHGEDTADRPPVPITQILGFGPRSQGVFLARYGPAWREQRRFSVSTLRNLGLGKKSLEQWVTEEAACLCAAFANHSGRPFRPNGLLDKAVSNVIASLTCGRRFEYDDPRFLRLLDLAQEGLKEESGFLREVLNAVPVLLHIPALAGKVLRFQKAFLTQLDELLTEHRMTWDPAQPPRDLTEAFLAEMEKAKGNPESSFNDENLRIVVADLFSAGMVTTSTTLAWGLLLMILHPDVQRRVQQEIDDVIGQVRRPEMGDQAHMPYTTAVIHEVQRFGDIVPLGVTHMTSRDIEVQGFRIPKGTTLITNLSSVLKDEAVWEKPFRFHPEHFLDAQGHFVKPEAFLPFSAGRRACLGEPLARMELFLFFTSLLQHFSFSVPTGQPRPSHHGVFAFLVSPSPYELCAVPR

| SMILES | CYP2D6 AC50 (half-maximal activity concentration) |
| --- | --- |
| CN(CC1(C)CCCO1)S(=O)(=O)c1ccc(Cl)c(S(N)(=O)=O)c1 (centres unmarked) [Mefruside] | Inactive |
| CCc1c(C(=O)NN2CCCCC2)nn(-c2ccc(Cl)cc2Cl)c1-c1ccc(Br)cc1 [Surinabant] | Inactive |

Same assay, conditions: human

| SMILES | CYP2D6 Efficacy (in parenthesis) |
| --- | --- |
| CCNP(=S)(OC)O/C(C)=C/C(=O)OC(C)C (centres unmarked) [Propetamphos] | 28.38 ± 3.26 (-120 ± 4) % |
| CCCC1COC(Cn2cncn2)(c2ccc(Cl)cc2Cl)O1 (centres unmarked) [Propiconazole] | 37.02 ± 2.51 (-73 ± 5) % |
| CC(C)(C)C(O)(CCc1ccc(Cl)cc1)Cn1cncn1 (centres unmarked) [Tebuconazole] | 34.28 ± 2.23 (-82 ± 7) % |
| FC(F)C(F)(F)OCC(Cn1cncn1)c1ccc(Cl)cc1Cl (centres unmarked) [Tetraconazole] | 12.32 ± 3.08 (-113 ± 2) % |
| CCCOC/C(=N\c1ccc(Cl)cc1C(F)(F)F)n1ccnc1 [Triflumizole] | 34.28 ± 2.23 (-99 ± 9) % |

Each compound was assayed against Photinus pyralis (firefly) luciferase (Photinus pyralis, UniProt P08659) (assay: biochemical). Conditions: not given.
Format: biochemical

Sequence of Photinus pyralis (firefly) luciferase (P08659 whole entry): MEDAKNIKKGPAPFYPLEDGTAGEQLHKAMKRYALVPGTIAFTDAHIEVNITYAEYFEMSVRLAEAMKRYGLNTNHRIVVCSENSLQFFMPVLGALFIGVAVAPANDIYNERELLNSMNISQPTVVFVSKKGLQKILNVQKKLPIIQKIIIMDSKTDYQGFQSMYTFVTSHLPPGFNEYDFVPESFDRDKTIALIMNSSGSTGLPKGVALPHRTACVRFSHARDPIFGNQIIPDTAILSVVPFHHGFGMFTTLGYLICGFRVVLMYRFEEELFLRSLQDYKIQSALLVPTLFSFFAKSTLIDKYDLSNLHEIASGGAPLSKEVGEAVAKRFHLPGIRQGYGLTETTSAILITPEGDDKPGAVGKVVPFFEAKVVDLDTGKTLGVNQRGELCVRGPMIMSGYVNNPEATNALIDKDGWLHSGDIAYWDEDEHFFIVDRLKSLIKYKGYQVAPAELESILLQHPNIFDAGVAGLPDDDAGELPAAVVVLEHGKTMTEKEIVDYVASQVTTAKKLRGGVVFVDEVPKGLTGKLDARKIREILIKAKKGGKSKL

| SMILES | Luciferase IC50 (half-maximal inhibitory concentration) |
| --- | --- |
| CCNP(=S)(OC)O/C(C)=C/C(=O)OC(C)C (centres unmarked) [Propetamphos] | Inactive |
| CCCC1COC(Cn2cncn2)(c2ccc(Cl)cc2Cl)O1 (centres unmarked) [Propiconazole] | Inactive |
| CC(C)(C)C(O)(CCc1ccc(Cl)cc1)Cn1cncn1 (centres unmarked) [Tebuconazole] | Inactive |
| FC(F)C(F)(F)OCC(Cn1cncn1)c1ccc(Cl)cc1Cl (centres unmarked) [Tetraconazole] | Inactive |
| CCCOC/C(=N\c1ccc(Cl)cc1C(F)(F)F)n1ccnc1 [Triflumizole] | Inactive |

The compounds below were run against T3, human CYP1A2 (assay: biochemical). Conditions: CYP1A2 IC50 (half-maximal inhibitory concentration).

| SMILES | IC50 [µM] |
| --- | --- |
| CCNP(=S)(OC)O/C(C)=C/C(=O)OC(C)C (centres unmarked) [Propetamphos] | 2.25 |
| CCCC1COC(Cn2cncn2)(c2ccc(Cl)cc2Cl)O1 (centres unmarked) [Propiconazole] | 24.7 |
| CC(C)(C)C(O)(CCc1ccc(Cl)cc1)Cn1cncn1 (centres unmarked) [Tebuconazole] | 31.9 |
| FC(F)C(F)(F)OCC(Cn1cncn1)c1ccc(Cl)cc1Cl (centres unmarked) [Tetraconazole] | 6.09 |
| CCCOC/C(=N\c1ccc(Cl)cc1C(F)(F)F)n1ccnc1 [Triflumizole] | 9.3 |

What follows are compounds tested against T4, CYP3A4 (assay: biochemical). Conditions: not given.

| SMILES | AC50 [µM] |
| --- | --- |
| CN(CC1(C)CCCO1)S(=O)(=O)c1ccc(Cl)c(S(N)(=O)=O)c1 (centres unmarked) [Mefruside] | 15.8 ± 3.61 |
| CCc1c(C(=O)NN2CCCCC2)nn(-c2ccc(Cl)cc2Cl)c1-c1ccc(Br)cc1 [Surinabant] | 4.12 ± 1.72 |

Same assay, conditions: CYP3A4 IC50 (half-maximal inhibitory concentration)

| SMILES | IC50 [µM] |
| --- | --- |
| CCNP(=S)(OC)O/C(C)=C/C(=O)OC(C)C (centres unmarked) [Propetamphos] | 1.05 |
| CCCC1COC(Cn2cncn2)(c2ccc(Cl)cc2Cl)O1 (centres unmarked) [Propiconazole] | 0.06 |
| CC(C)(C)C(O)(CCc1ccc(Cl)cc1)Cn1cncn1 (centres unmarked) [Tebuconazole] | 0.21 |
| FC(F)C(F)(F)OCC(Cn1cncn1)c1ccc(Cl)cc1Cl (centres unmarked) [Tetraconazole] | 0.25 |
| CCCOC/C(=N\c1ccc(Cl)cc1C(F)(F)F)n1ccnc1 [Triflumizole] | 0.21 |

The compounds below were run against T1, human CYP2C19 (assay: not given). Conditions: human.

| SMILES | CYP2C19 Efficacy (in parenthesis) |
| --- | --- |
| CCNP(=S)(OC)O/C(C)=C/C(=O)OC(C)C (centres unmarked) [Propetamphos] | 0.08 ± 0.01 (-138 ± 6) % |
| CCCC1COC(Cn2cncn2)(c2ccc(Cl)cc2Cl)O1 (centres unmarked) [Propiconazole] | 0.52 ± 0.14 (-134 ± 10) % |
| CC(C)(C)C(O)(CCc1ccc(Cl)cc1)Cn1cncn1 (centres unmarked) [Tebuconazole] | 0.45 ± 0.0 (-115 ± 9) % |
| FC(F)C(F)(F)OCC(Cn1cncn1)c1ccc(Cl)cc1Cl (centres unmarked) [Tetraconazole] | 0.02 ± 0.0 (-134 ± 5) % |
| CCCOC/C(=N\c1ccc(Cl)cc1C(F)(F)F)n1ccnc1 [Triflumizole] | 0.36 ± 0.3 (-125 ± 6) % |

Each compound was assayed against T5, human CYP2D6 (assay: biochemical). Conditions: not given.

| SMILES | IC50 [µM] |
| --- | --- |
| CCNP(=S)(OC)O/C(C)=C/C(=O)OC(C)C (centres unmarked) [Propetamphos] | 28.4 |

Same assay, conditions: CYP2D6 IC50 (half-maximal inhibitory concentration)

| SMILES | IC50 [µM] |
| --- | --- |
| CCCC1COC(Cn2cncn2)(c2ccc(Cl)cc2Cl)O1 (centres unmarked) [Propiconazole] | 37 |
| CC(C)(C)C(O)(CCc1ccc(Cl)cc1)Cn1cncn1 (centres unmarked) [Tebuconazole] | 34.3 |
| FC(F)C(F)(F)OCC(Cn1cncn1)c1ccc(Cl)cc1Cl (centres unmarked) [Tetraconazole] | 12.3 |
| CCCOC/C(=N\c1ccc(Cl)cc1C(F)(F)F)n1ccnc1 [Triflumizole] | 34.3 |

What follows are compounds tested against T1, human CYP2C19 (assay: P450-Glo CYP2C19 inhibition qHTS). Conditions: not given.

| SMILES | CYP2C19 AC50 (half-maximal activity concentration) |
| --- | --- |
| CN(CC1(C)CCCO1)S(=O)(=O)c1ccc(Cl)c(S(N)(=O)=O)c1 (centres unmarked) [Mefruside] | Inconclusive inhibitor |
| CCc1c(C(=O)NN2CCCCC2)nn(-c2ccc(Cl)cc2Cl)c1-c1ccc(Br)cc1 [Surinabant] | Inconclusive inhibitor |
